Reference: US11311506B2, “Controlling biofilms with cyclopropanated fatty acids” (THE UNIVERSITY OF MEMPHIS RESEARCH FOUNDATION, priority 2018, dated 2022)

What was measured:
biofilm formation = settings: background statement; cited from earlier work
bacterial growth = settings: background statement; cited from earlier work
[1] = tested on: Pseudomonas aeruginosa (ATCC 27317) biofilm; test: Biofilm eradication with antibiotics, MBEC plate (Example 8, P. aeruginosa); format: cell-based; settings: for FICI / Interpretation: P. aeruginosa eradication, antibiotic combined with 2-CP; for FICI: 4000 μg/mL used for 2-CP alone; for MEC for antibiotic (combined): combined with 2-CP
Experimental: (§1) Staphylococcus aureus (UAMS1) was grown overnight in TSB by incubation at 37° C. Pseudomonas aeruginosa (ATCC 27317) was grown overnight in a similar manner. S. aureus was diluted 1:10 in TSB and P. aeruginosa was diluted 1:50. Bacterial dilutions were added at a volume of 150 μL into each well of a 96-well MBEC′ Biofilm Inoculator plate, followed by overnight incubation to form the biofilm. The next day the medium from each well was carefully aspirated allowing the biofilm to remain both on the pegs of the top plate and the bottom of the wells. […] These plates were incubated at 37° C. for 24 hours. The next day the peg plates (top plate) were removed and added to new plates containing 150 μL of sterile TSB in each well. Plates were sonicated for 5 minutes to remove the viable bacteria attached to the peg surface and later incubated for 24 hours. Turbidity was measured by reading absorbance at 540 nm for bacterial growth in the presence of fixed concentrations of the antibiotics with varying concentrations of 2-CP and C2DA.

[2] = tested on: Pseudomonas aeruginosa (ATCC 27317) biofilm; test: Biofilm dispersion measurements (Pseudomonas aeruginosa), Luciferase assay for ATP production; format: cell-based; settings: 125 or 250 μg/mL, 24 h; FIG. 7
Experimental: Biofilm was formed using Pseudomonas aeruginosa (ATCC 27317) in a 96-well plate format. Each well of the plate was seeded with 150 μL of bacterial culture and incubated for 24 hours. […] The plate was then incubated for 24 hours and the medium was aspirated and the plate washed several times.
(§2) The relative percentage of attached cells as compared to non-treated controls was assessed using a Luciferase assay for ATP production.

[3] = tested on: Mouse fibroblast cells (NIH3T3); test: Cytocompatibility, CellTiter Glow cell viability; format: cell-based
Experimental: Mouse fibroblast cells (NIH3T3) were seeded (1×10^4 cells/cm^2) in 24-well plates in Dulbecco's Modified Eagle's Medium (DMEM) supplemented with 10% fetal bovine serum and 100 μg/mL Normocin for 24 hours at 37° C. and 5% CO2. Concentrations of C2DA, T2DA, and 2-CP ranging from 0 to 1000 μg/mL were added to various wells. The plate was incubated for 24 hours and cell viability was measured using CellTiter Glow.

S. aureus (UAMS-1) = test: Synergy checkerboard assay, biofilm inhibition (S. aureus); format: cell-based; settings: for MIC for antibiotic (combined): combined with 2-CP
Experimental: (§3) Synergy assays were performed to determine the effects of 2-CP when used in combination with various antimicrobials against gram positive S. aureus and gram negative P. aeruginosa. […] Final antibiotic concentrations varied based on their respective minimum inhibitory concentration for each organism and are given in Table 1. […] Inhibition was defined as a lack of visible growth after a 24 hr incubation period. The fractional inhibitory concentration index (FICI) was used to determine synergistic, additive, or antagonistic responses between the three antibiotics and 2-CP.

[4] = tested on: Staphylococcus aureus biofilm; test: Biofilm eradication with antibiotics, MBEC Biofilm Inoculator plate, turbidity at 540 nm (Example 3); format: cell-based; settings: 24 h
Experimental: Overnight cultures of Staphylococcus aureus were prepared by inoculating 2 mL of TSB followed by incubation overnight at 37° C. The following day, 1 mL of this stock was diluted in 10 mL of TSB. A total of 150 μL of the diluted stock was seeded into each well of a 96-well MBECTM Biofilm Inoculator plate, followed by incubation overnight to allow biofilm growth. All media and planktonic bacteria were then aspirated from each well thus allowing the biofilm to remain both on the bottom of each well and on the pegs on the top of the plate. […] The plates were incubated for 24 hours at 37° C. Following incubation, the pegs were removed and added to new plates containing 150 μL of sterile TSB in each well. Plates and pegs were then sonicated for 5 minutes to remove any viable bacteria attached to the pegs, followed by incubation for 24 hours. Turbidity was determined via absorbance at 540 nm to access bacterial growth in the presence of fixed concentration of antibiotics and varying concentrations of […] and 2-CP. In this assay, the live bacteria that remained attached to the pegs grew overnight and increased turbidity.

[5] = tested on: P. aeruginosa (PA-ATCC 27317); test: Synergy checkerboard assay, biofilm inhibition (P. aeruginosa); format: cell-based; settings: for FICI / Interpretation: antibiotic combined with 2-CP; for MIC for antibiotic (combined): combined with 2-CP
Experimental: as §3

[6] = tested on: Staphylococcus aureus biofilm; test: Biofilm dispersion measurements (Staphylococcus aureus), Luciferase assay for ATP production; format: cell-based; settings: 500 μg/mL; preformed 7-day S. aureus biofilm; FIG. 1
Experimental: Biofilm was formed using Staphylococcus aureus in a 96-well plate format. Each well of the plate was seeded with 150 μL of bacterial culture and incubated for 24 hours to allow for biofilm growth. The medium in each well was changed every 24 hours for 5 days and every 12 hours for two additional days. On day 7, 135 μL of Tryptic Soy Broth (TSB) and 15 μL of C2DA, T2DA, or 2-CP were added to yield final concentrations of each test compound ranging from 0 to 1000 μg/mL. The plate was then incubated for one hour and the turbidity of each solution was determined at 540 nm. Bacterial growths were then aspirated from all wells and the plates were washed several times with water.
as §2

[7] = tested on: Staphylococcus aureus (UAMS1) biofilm; test: Biofilm eradication with antibiotics, MBEC plate (Example 8, S. aureus); format: cell-based
Experimental: as §1

CCCCCCC/C=C\C(=O)O [C2DA, cis-2-decenoic acid]
concentration capable of inhibiting biofilm formation (biofilm formation): 125 µg/mL | concentration that may inhibit bacterial growth (bacterial growth): 500 µg/mL

CCCCCCCC1CC1C(=O)O (stereo not drawn) [2-CP, cis-2-heptylcyclopropanyl-1-carboxylic acid]
MEC for 2-CP (alone) ([1]; P. aeruginosa biofilm eradication): >4000 | biofilm eradication by the substance alone ([1]; P. aeruginosa, alone): did not eradicate biofilm at any concentration tested | MEC for 2-CP (combined) ([1]; P. aeruginosa, combined with Levofloxacin): 250 | MEC for 2-CP (combined) ([1]; P. aeruginosa, combined with Tobramycin): 250 | ability to disperse biofilm (relative percentage of attached cells) [2]: increased ability to disperse biofilm as compared to T2DA and controls | cytocompatibility (percentage of viable cells vs PBS control) ([3]; NIH3T3, 0 to 1000 μg/mL, 24 h, FIG. 4): cytocompatibility equal to C2DA | concentration exhibiting significant cytotoxicity toward mammalian cells ([3]; NIH3T3, 24 h): 1000 µg/mL | concentration inhibiting growth (S. aureus (UAMS-1); 2-CP alone): 4 mg/mL | MIC (S. aureus (UAMS-1); Staphylococcus aureus, 24 hr, read-out: MIC for 2-CP (alone)): 4000 µg/mL | MIC for 2-CP (combined) (S. aureus (UAMS-1); combined with Levofloxacin): 500 µg/mL | MIC for 2-CP (combined) (S. aureus (UAMS-1); combined with Tetracycline): 62.5 µg/mL | MIC for 2-CP (combined) (S. aureus (UAMS-1); combined with Tobramycin): 31 µg/mL | turbidity (absorbance at 540 nm) of bacteria surviving on pegs ([4]; increasing concentration of 2-CP (0-500 μg/mL) with fixed […] tobramycin, FIG. 2): significantly lower | biofilm eradication in combination with tetracycline ([4]; with tetracycline at […], fatty acid 0-500 μg/mL, FIG. 3): eradicated the biofilm at lower concentrations than C2DA | concentration inhibiting growth ([5]; 2-CP alone): 4 mg/mL | MIC ([5]; Pseudomonas aeruginosa, ATCC27317, 24 hr, read-out: MIC for 2-CP (alone)): 4000 µg/mL | MIC for 2-CP (combined) ([5]; combined with Levofloxacin): 1000 µg/mL | MIC for 2-CP (combined) ([5]; combined with Tetracycline): 1000 µg/mL | MIC for 2-CP (combined) ([5]; combined with Tobramycin): 31 µg/mL | ability to disperse biofilm (percentage of dispersed cells) [6]: increased ability to disperse biofilm as compared to its unsaturated fatty acid analog, C2DA | MEC for 2-CP (alone) ([7]; S. aureus biofilm eradication): >4000 | biofilm eradication by the substance alone ([7]; S. aureus, alone): did not eradicate biofilm at any concentration tested | MEC for 2-CP (combined) ([7]; S. aureus, combined with Tetracycline): 125 | MEC for 2-CP (combined) ([7]; S. aureus, combined with Tobramycin): 31.25

CN(C)[C@@H]1C(O)=C(C(N)=O)C(=O)[C@@]2(O)C(O)=C3C(=O)c4c(O)cccc4[C@@](C)(O)[C@H]3C[C@@H]12 [Tetracycline]
MIC for antibiotic (alone) (S. aureus (UAMS-1)): 1 µg/mL | MIC for antibiotic (combined) (S. aureus (UAMS-1)): 0.5 µg/mL | MIC for antibiotic (alone) [5]: 32 µg/mL | FICI [5]: 0.8 | MIC for antibiotic (combined) [5]: 16 µg/mL

C[C@H]1COc2c(N3CCN(C)CC3)c(F)cc3c(=O)c(C(=O)O)cn1c23 [Levofloxacin]
MEC for antibiotic (alone) ([1]; P. aeruginosa): 0.3 µg/mL | FICI [1]: 0.33 | MEC for antibiotic (combined) ([1]; P. aeruginosa): 0.08 µg/mL | MIC for antibiotic (alone) (S. aureus (UAMS-1)): 1 µg/mL | FICI (S. aureus (UAMS-1); antibiotic combined with 2-CP): 0.4 | MIC for antibiotic (combined) (S. aureus (UAMS-1)): 0.25 µg/mL | MIC for antibiotic (alone) [5]: 1 µg/mL | FICI [5]: 0.8 | MIC for antibiotic (combined) [5]: 0.5 µg/mL

NC[C@H]1O[C@H](O[C@H]2[C@H](O)[C@@H](O[C@H]3O[C@H](CO)[C@@H](O)[C@H](N)[C@H]3O)[C@H](N)C[C@@H]2N)[C@H](N)C[C@@H]1O [Tobramycin]
MEC for antibiotic (alone) ([1]; P. aeruginosa): 0.5 µg/mL | Interpretation [1]: Additive | FICI [1]: 0.5625 | Interpretation ([1]; listed as tobramycin): additive | MEC for antibiotic (combined) ([1]; P. aeruginosa): 0.25 µg/mL | MIC for antibiotic (alone) (S. aureus (UAMS-1)): 4 µg/mL | FICI (S. aureus (UAMS-1); antibiotic combined with 2-CP): 0.5 | Interpretation (S. aureus (UAMS-1); antibiotic combined with 2-CP): synergistic | MIC for antibiotic (combined) (S. aureus (UAMS-1)): 2 µg/mL | MIC for antibiotic (alone) [5]: 0.5 µg/mL | FICI [5]: 0.5 | Interpretation [5]: Syner- | Interpretation ([5]; listed as tobramycin): synergistic | MIC for antibiotic (combined) [5]: 0.25 µg/mL | MEC for antibiotic (alone) ([7]; S. aureus): 2.5 µg/mL | Interpretation ([7]; S. aureus eradication, antibiotic combined with 2-CP): Additive | FICI ([7]; S. aureus eradication, antibiotic combined with 2-CP, 4000 μg/mL used for 2-CP alone): 0.51 | Interpretation ([7]; S. aureus eradication, antibiotic combined with 2-CP, listed as tobramycin): additive | MEC for antibiotic (combined) ([7]; S. aureus, combined with 2-CP): 1.25 µg/mL
